IC50 data for 29 compounds are collected here from patent US20160304556A1, “[…] ACTIVE COMPOUNDS AND THEIR METHODS OF USE” (AGIOS PHARMACEUTICALS, INC, priority 2012, published 2016).

A value given as a limit tells only on which side of the number the result lay.

As a reminder, the IC50 is the concentration needed to halve the response being measured.

One assay has as its target IDH1 R132H (Homo sapiens, UniProt O75874, R132H). As to the kind of experiment: In vitro NADPH depletion assay for IDH1m R132H inhibitors. It is filed as biochemical. To be noted: enzyme, diaphorase/resazurin readout, read-out: IDH R132H IC50. How it is done: (§1) A test compound is prepared as 10 mM stock in DMSO and diluted to 50× final concentration in DMSO, for a 50 μl reaction mixture. IDH enzyme activity converting alpha-ketoglutarate to 2-hydroxyglutaric acid is measured using a NADPH depletion assay. In the assay the remaining cofactor is measured at the end of the reaction with the addition of a catalytic excess of diaphorase and resazurin, to generate a fluorescent signal in proportion to the amount of NADPH remaining. IDH1-R132 homodimer enzyme is diluted to […] in 40 μl of Assay Buffer(150 mM NaCl, 20 mM Tris-Cl pH 7.5, 10 mM MgCl2, 0.05% BSA, 2 mM b-mercaptoethanol); 1 μl of test compound dilution in DMSO is added and the mixture is incubated for 60 minutes at room temperature. The reaction is started with the addition of 10 μl of Substrate Mix ([…], 5 mM alpha-ketoglutarate, in Assay Buffer) and the mixture is incubated for 90 minutes at room temperature. The reaction is terminated with the addition of 25 μl of Detection Buffer (36 μg/ml diaphorase, […], in 1× Assay Buffer), and is incubated for 1 minute before reading on a SpectraMax platereader at Ex544/Em590.
(§2) Representative compounds of formula I set forth in Table 1 were tested in this assay and the results are set forth below in Table 3.

Another assay deals with IDH1 R132C (Homo sapiens, UniProt O75874, R132C). The experiment in a line: In vitro NADPH depletion assay for IDH1m R132C inhibitors. Format: biochemical. The conditions noted are these: enzyme, diaphorase/resazurin readout, read-out: IDH R132C IC50. Here is the method: as §1
Compounds are assayed for their activity against IDH1 R132C following the same assay as above with the following modifications: Assay Buffer is (50 mM potassium phosphate, pH 6.5; 40 mM sodium carbonate, 5 mM MgCl2, 10% glycerol, 2 mM b-mercaptoethanol, and 0.03% BSA). The concentration of NADPH and alpha-ketoglutarate in the Substrate Buffer is 20 μM and 1 mM, respectively.
as §2
(In general: Alamar Blue is a resazurin reagent that responds to reducing activity.)

In another assay the test system is HT1080 cells. As to the kind of experiment: Cellular assay, inhibition of 2-HG production (LC-MS) in HT1080 cells. To be noted: Homo sapiens, HT-1080, 48 hours, LC-MS of media. It is filed as cell-based. How it is done: Cells (HT1080 or U87MG) are grown in T125 flasks in DMEM containing 10% FBS, 1× penicillin/streptomycin and 500 ug/mL G418 (present in U87MG cells only). They are harvested by trypsin and seeded into 96 well white bottom plates at a density of 5000 cell/well in 100 μl/well in DMEM with 10% FBS. No cells are placed in columns 1 and 12. Cells are incubated overnight at 37° C. in 5% CO2. The next day test compounds are made up at 2× the final concentration and 100 μl are added to each cell well. The final concentration of DMSO is 0.2% and the DMSO control wells are plated in row G. The plates are then placed in the incubator for 48 hours. At 48 hours, 100 μl of media is removed from each well and analyzed by LC-MS for 2-HG concentrations. The cell plate is placed back in the incubator for another 24 hours. At 72 hours post compound addition, 10 mL/plate of Promega Cell Titer Glo reagent is thawed and mixed. The cell plate is removed from the incubator and allowed to equilibrate to room temperature. Then 100 μl of Promega Cell Titer Glo reagent is added to each well of media. The cell plate is then placed on an orbital shaker for 10 minutes and then allowed to sit at room temperature for 20 minutes. The plate is then read for luminescence with an integration time of 500 ms.
The IC50 for inhibition of 2-HG production (concentration of test compound to reduce 2HG production by 50% compared to control) in these two cell lines for various compounds of formula I is set forth in Table 2 above.

Chain of IDH1 R132H (O75874 whole entry R132H): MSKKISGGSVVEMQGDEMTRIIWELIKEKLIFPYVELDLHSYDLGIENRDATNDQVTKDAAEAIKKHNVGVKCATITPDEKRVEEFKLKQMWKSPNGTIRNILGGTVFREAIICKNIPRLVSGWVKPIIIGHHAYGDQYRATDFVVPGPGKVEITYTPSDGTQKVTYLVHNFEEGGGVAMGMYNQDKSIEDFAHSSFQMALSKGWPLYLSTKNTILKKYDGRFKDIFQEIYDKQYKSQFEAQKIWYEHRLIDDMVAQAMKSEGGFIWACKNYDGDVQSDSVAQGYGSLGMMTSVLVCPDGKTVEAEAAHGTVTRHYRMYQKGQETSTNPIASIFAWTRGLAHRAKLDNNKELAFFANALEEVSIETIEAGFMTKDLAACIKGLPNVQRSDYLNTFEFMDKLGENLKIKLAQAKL
Chain of IDH1 R132C (O75874 whole entry R132C): as the sequence (O75874 whole entry R132H) above, with H132C counted along it

With `COC(=O)NCC(=O)N(c1cccc(F)c1)[C@H](C(=O)N[C@H]1CCCC(F)(F)C1)c1ccccc1Cl` (single isomer, unassigned) [Compound 94, methyl 2-((1-(2-chlorophenyl)-2-(3,3-difluorocyclohexylamino)-2-oxoethyl) (3-fluoro-phenyl)amino)-2-oxoethylcarbamate], the IC50 at IDH1 R132H and on IDH1 R132C was 100 to 500 nM each time.
With `COC(=O)NCC(=O)N(c1cccc(F)c1)[C@H](C(=O)N[C@@H]1CCCC(F)(F)C1)c1ccccc1Cl` (single isomer, unassigned) [Compound 95, methyl 2-((1-(2-chlorophenyl)-2-(3,3-difluorocyclohexylamino)-2-oxoethyl) (3-fluoro-phenyl)amino)-2-oxoethylcarbamate], the IC50 at IDH1 R132H and on IDH1 R132C was 100 to 500 nM each time.
As to `O=C(NC1CCCCC1)C(c1ccccc1Cl)N(C(=O)C1Cc2ccccc2N1)c1cccc(F)c1` (stereo not shown) [Compound 32], the IC50 at IDH1 R132H and in the assay with HT1080 cells was 100 to 500 nM in each case.
As to `O=C(NC1CCC(F)(F)CC1)C(c1ccccc1Cl)N(C(=O)Cn1cnc(Cl)c1Cl)c1cccc(F)c1` (stereo not shown) [Compound 33], the IC50 is not above 100 nM on IDH1 R132H and 100 to 500 nM with HT1080 cells.
Take `O=C(NC1CC(F)(F)C1)C(c1ccccc1Cl)N(C(=O)Cn1cncn1)c1cccc(F)c1` (stereo not shown) [Compound 36]: the IC50 was in the range of 100 to 500 nM on IDH1 R132H and 1000 to 2000 nM at IDH1 R132C.
With `COC(=O)N1CCC[C@H]1C(=O)N(c1cccc(F)c1)[C@H](C(=O)NC1CC(F)(F)C1)c1ccccc1Cl` [Compound 42, (S)-methyl 2-(((S)-1-(2-chlorophenyl)-2-((3,3-difluorocyclobutyl)amino)-2-oxoethyl)(3-fluorophenyl)carbamoyl)pyrrolidine-1-carboxylate], the figures for the IC50 on IDH1 R132H and in the assay with HT1080 cells were not above 100 nM and 100 to 500 nM, respectively.
For `O=C(NC1CCC(F)(F)CC1)C(c1ccccc1Cl)N(C(=O)Cn1cncn1)c1cccc(F)c1` (stereo not shown) [Compound 45], the figures for the IC50 at IDH1 R132H and in the assay on HT1080 cells were 100 to 500 nM and 1000 to 2000 nM, respectively.
Take `O=C(NC1CCC(F)(F)CC1)C(c1ccccc1Cl)N(C(=O)Cn1ccnn1)c1cccc(F)c1` (stereo not shown) [Compound 46]: the IC50 lay in the range of 100 to 500 nM at IDH1 R132H and 1000 to 2000 nM in the assay with HT1080 cells.
In the same order, the values of `O=C(NC1CC(F)(F)C1)C(c1ccccc1Cl)N(C(=O)CNc1cccnc1F)c1cccc(F)c1` (stereo not shown) [Compound 47] are not above 100 nM and 100 to 500 nM.
Take `O=C(NC1CCC(F)(F)CC1)C(c1ccccc1Cl)N(C(=O)Cn1cnnn1)c1cccc(F)c1` (stereo not shown) [Compound 49]: the IC50 on IDH1 R132H and on IDH1 R132C was 100 to 500 nM throughout.
In the case of `COC(=O)N1C[C@H](O)C[C@H]1C(=O)N(c1cccc(F)c1)[C@H](C(=O)NC1CC(F)(F)C1)c1ccccc1Cl` [Compound 51], the figures for the IC50 at IDH1 R132H and with HT1080 cells were not above 100 nM and 500 to 1000 nM, respectively.
As to `COC(=O)N1C[C@@H](O)C[C@H]1C(=O)N(c1cccc(F)c1)[C@H](C(=O)NC1CC(F)(F)C1)c1ccccc1Cl` [Compound 52], the IC50 at IDH1 R132H is not above 100 nM; with HT1080 cells, 500 to 1000 nM.
Regarding `COC(=O)N1CCOC[C@H]1C(=O)N(c1cccc(F)c1)[C@H](C(=O)NC1CC(F)(F)C1)c1ccccc1Cl` [Compound 53], the IC50 at IDH1 R132H was not above 100 nM; in the assay on HT1080 cells, 100 to 500 nM.
For `COC(=O)N1COC[C@H]1C(=O)N(c1cccc(F)c1)[C@H](C(=O)NC1CC(F)(F)C1)c1ccccc1Cl` [Compound 54], the IC50 on IDH1 R132H is not above 100 nM; in the assay on HT1080 cells, 500 to 1000 nM.
Take `COC(=O)N1C[C@H](F)C[C@H]1C(=O)N(c1cccc(F)c1)[C@H](C(=O)NC1CC(F)(F)C1)c1ccccc1Cl` [Compound 55, (2S,4R)-methyl 2-(((S)-1-(2-chlorophenyl)-2-((3,3-difluorocyclo-butyl)amino)-2-oxoethyl)(3-fluorophenyl)carbamoyl)-4-fluoropyrrolidine-1-carboxylate]: the IC50 is not above 100 nM on IDH1 R132H and 500 to 1000 nM in the assay with HT1080 cells.
With `COC(=O)N[C@@H](CO)C(=O)N(c1cccc(F)c1)C(C(=O)NC1CC(F)(F)C1)c1ccccc1Cl` (stereo partly shown) [Compound 56], the IC50 at IDH1 R132H was in the range of 100 to 500 nM; on IDH1 R132C it was 500 to 1000 nM.
For the compound `COC(=O)N1CCC[C@H]1C(=O)N(c1cccc(S(N)(=O)=O)c1)[C@H](C(=O)NC1CCC(F)(F)CC1)c1ccccc1Cl` [Compound 57], the figures for the IC50 on IDH1 R132H and in the assay with HT1080 cells were 100 to 500 nM and 500 to 1000 nM, respectively.
In the same order, the values of `COC(=O)N1CCNC[C@H]1C(=O)N(c1cccc(F)c1)[C@H](C(=O)NC1CC(F)(F)C1)c1ccccc1Cl` [Compound 62, (S)-Methyl 2-(((S)-1-(2-chlorophenyl)-2-(3,3-difluorocyclobutylamino)-2-oxoethyl) -(3-fluoro-phenyl)carbamoyl)piperazine-1-carboxylate] are 100 to 500 nM and 1000 to 2000 nM.
On to `COC(=O)N1C[C@@H](OC)C[C@H]1C(=O)N(c1cccc(F)c1)[C@H](C(=O)NC1CC(F)(F)C1)c1ccccc1Cl` [Compound 63], for which the IC50 at IDH1 R132H is not above 100 nM; in the assay with HT1080 cells, 1000 to 2000 nM.
On to `O=C(NC1CC(F)(F)C1)C(c1ccccc1Cl)N(C(=O)Cc1ccncc1)c1cccc(F)c1` (stereo not shown) [Compound 64], for which the IC50 at IDH1 R132H is not above 100 nM; in the assay on HT1080 cells, 100 to 500 nM.
Take `COC(=O)N1C[C@H](N)C[C@H]1C(=O)N(c1cccc(F)c1)[C@H](C(=O)NC1CC(F)(F)C1)c1ccccc1Cl` [Compound 65]: the IC50 at IDH1 R132H was 100 to 500 nM; at IDH1 R132C, 500 to 1000 nM.
In the same order, the values of `COC(=O)N1CCN(C(C)=O)C[C@H]1C(=O)N(c1cccc(F)c1)[C@@H](C(=O)NC1CC(F)(F)C1)c1ccccc1Cl` [Compound 67, (S)-Methyl 4-acetyl-2-(((R)-1-(2-chlorophenyl)-2-(3,3-difluorocyclobutylamino)-2-oxoethyl)(3-fluorophenyl)carbamoyl)piperazine-1-carboxylate] are 100 to 500 nM and 100 to 500 nM.
In the case of `O=C(NC1CC(F)(F)C1)C(c1ccccc1Cl)N(C(=O)Cn1ccnc1CO)c1cccc(F)c1` (stereo not shown) [Compound 72], the results for the IC50 on IDH1 R132H and on IDH1 R132C were 100 to 500 nM and 500 to 1000 nM, respectively.
On to `COC(=O)NCC(=O)N(c1cccc(F)c1)C(C(=O)NC1CC(F)(F)C1)c1c(Cl)cccc1Cl` (stereo not shown) [Compound 76], for which the IC50 at IDH1 R132H and at IDH1 R132C was 100 to 500 nM each time.
Turning to `COC(=O)NCC(=O)N(c1cccc(F)c1)C(C(=O)NC1CC(F)(F)C1)c1c(F)cccc1Cl` (stereo not shown) [Compound 77], the IC50 was 100 to 500 nM on IDH1 R132H and 500 to 1000 nM on IDH1 R132C.
For `COC(=O)NCC(=O)N(c1cccc(F)c1)C(C(=O)NC1CC(F)(F)C1)c1c(F)cccc1F` (stereo not shown) [Compound 78], the results for the IC50 on IDH1 R132H and at IDH1 R132C were 500 to 1000 nM and 1000 to 2000 nM, respectively.
For the compound `COC(=O)N1CCN(C)C[C@H]1C(=O)N(c1cccc(F)c1)[C@H](C(=O)NC1CC(F)(F)C1)c1ccccc1Cl` [Compound 80, (S)-Methyl 2-(((S)-1-(2-chlorophenyl)-2-(3,3-difluorocyclobutylamino)-2-oxoethyl)-(3-fluorophenyl)carbamoyl)-4-methylpiperazine-1-carboxylate], the IC50 on IDH1 R132H and at IDH1 R132C was 100 to 500 nM each time.
As to `COC(=O)N1C[C@@H](N)C[C@H]1C(=O)N(c1cccc(F)c1)[C@H](C(=O)NC1CC(F)(F)C1)c1ccccc1Cl` [Compound 89], the IC50 at IDH1 R132H was in the range of 100 to 500 nM; on IDH1 R132C it was 500 to 1000 nM.
For `N#Cc1ccnc(N2c3ccccc3C[C@H]2C(=O)N(c2cc(F)cc(F)c2)C(C(=O)NC2CC(F)(F)C2)c2ccccc2Cl)c1` (stereo partly drawn) [Compound 119, (2S)—N-(1-(2-chlorophenyl)-2-((3,3-difluorocyclobutyl)amino)-2-oxoethyl)-1-(4-cyanopyridin-2-yl)-N-(3,5-difluorophenyl)indoline-2-carboxamide], the IC50 on IDH1 R132H and in the assay with HT1080 cells was 100 to 500 nM each time.
